Measured values published in paper PMC3956299 (Chembiochem : a European journal of chemical biology, 2009).

How the values were obtained:
[1] = tested on: processing of influenza viral hemagglutinin in cultured MDCK cells; settings: cited from earlier work
[2] = target: T1, Drosophila Golgi α-mannosidase II (dGMII) (Drosophila melanogaster, UniProt Q24451); type: biochemical
T1 sequence (Q24451 31-1108 limits assumed): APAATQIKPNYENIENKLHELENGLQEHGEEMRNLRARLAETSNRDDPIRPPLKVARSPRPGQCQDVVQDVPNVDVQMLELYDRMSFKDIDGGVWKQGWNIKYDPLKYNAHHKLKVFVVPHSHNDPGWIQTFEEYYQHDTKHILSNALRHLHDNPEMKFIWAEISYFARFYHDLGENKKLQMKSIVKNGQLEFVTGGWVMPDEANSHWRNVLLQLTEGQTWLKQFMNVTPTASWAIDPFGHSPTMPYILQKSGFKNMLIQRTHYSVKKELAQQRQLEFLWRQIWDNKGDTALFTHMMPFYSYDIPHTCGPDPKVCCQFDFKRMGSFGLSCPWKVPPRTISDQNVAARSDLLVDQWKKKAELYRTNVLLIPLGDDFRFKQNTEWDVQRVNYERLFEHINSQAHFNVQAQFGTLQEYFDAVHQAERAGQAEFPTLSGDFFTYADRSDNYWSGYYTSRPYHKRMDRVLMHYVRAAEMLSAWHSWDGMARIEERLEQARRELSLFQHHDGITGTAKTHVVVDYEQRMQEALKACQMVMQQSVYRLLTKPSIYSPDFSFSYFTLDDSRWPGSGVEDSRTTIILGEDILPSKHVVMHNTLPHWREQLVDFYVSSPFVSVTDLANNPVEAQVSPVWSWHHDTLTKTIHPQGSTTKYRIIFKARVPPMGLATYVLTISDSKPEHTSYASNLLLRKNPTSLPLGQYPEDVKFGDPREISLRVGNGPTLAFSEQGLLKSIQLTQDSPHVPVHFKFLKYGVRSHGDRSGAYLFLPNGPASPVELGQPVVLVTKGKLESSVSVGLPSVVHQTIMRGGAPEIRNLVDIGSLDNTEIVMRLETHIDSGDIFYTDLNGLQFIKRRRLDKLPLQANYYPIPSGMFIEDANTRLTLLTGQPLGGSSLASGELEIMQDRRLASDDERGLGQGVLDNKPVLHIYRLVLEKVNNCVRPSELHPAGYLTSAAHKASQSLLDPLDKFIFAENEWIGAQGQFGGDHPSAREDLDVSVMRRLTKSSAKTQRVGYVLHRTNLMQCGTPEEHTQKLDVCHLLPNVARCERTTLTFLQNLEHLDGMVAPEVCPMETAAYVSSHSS

## CS[C@@H]1[C@@H](N)[C@@H](O)[C@@H](O)[C@H]1O [Compound 1, Mannostatin A]
[1]
  effect on processing of influenza viral hemagglutinin: effectively blocked the processing of influenza viral hemagglutinin

## N[C@@H]1C[C@H](O)[C@H](O)[C@@H]1O [Compound 3, (1S, 2S, 3R, 4R)-4-aminocyclopentane-1,2,3-triol]
[2]
  inhibitory activity in words: very poor inhibitor

## CO[C@@H]1[C@@H](N)[C@@H](O)[C@@H](O)[C@H]1O [Compound 5, (1R, 2R, 3R, 4S, 5R)-4-Amino-5-methoxycyclopentane-1,2,3-triol]
[2]; relative to 4 (4a)
  fold enhancement of potency on changing hydroxyl of 4 to methoxy: ~ 4 fold
